# How the values were obtained:
# Rattus norvegicus [1] = experiment: Anti-inflammatory activity in Rattus norvegicus Sprague-Dawley (rat) assessed as inhibition of carrageenan-induced paw edema at 10 mg/kg administered 1 hr prior to carrageenan challenge measured at 4 hr relative to diclofenac; assay type: functional
# Rattus norvegicus [2] = experiment: Anti-inflammatory activity in Rattus norvegicus Sprague-Dawley (rat) assessed as inhibition of carrageenan-induced paw edema at 10 mg/kg administered 1 hr prior to carrageenan challenge measured at 4 hr relative to control; assay type: functional
# Rattus norvegicus [3] = experiment: Anti-inflammatory activity in Rattus norvegicus Sprague-Dawley (rat) assessed as inhibition of carrageenan-induced paw edema at 10 mg/kg administered 1 hr prior to carrageenan challenge measured at 2 hr relative to control; assay type: functional
# Rattus norvegicus [4] = experiment: Anti-inflammatory activity in Rattus norvegicus Sprague-Dawley (rat) assessed as inhibition of carrageenan-induced paw edema at 10 mg/kg administered 1 hr prior to carrageenan challenge measured at 1 hr relative to control; assay type: functional
# Rattus norvegicus [5] = experiment: Ulcerogenicity in Rattus norvegicus Sprague-Dawley (rat) stomach assessed as ulcer score at 50 mg/kg administered via intragastrically after 6 hr by hematoxylin and eosin staining; assay type: toxicity, organism-based; parameters: dose 50 mg/kg, route intragastric; settings: in vivo, po
# Rattus norvegicus [6] = experiment: Ulcerogenicity in Rattus norvegicus Sprague-Dawley (rat) stomach assessed as decrease in gastric mucosa layer thickness at 50 mg/kg administered via intragastrically after 6 hr by hematoxylin and eosin staining relative to untreated control; assay type: toxicity, organism-based; parameters: dose 50 mg/kg, route intragastric; scale not given: the % may be the effect or the level left; settings: in vivo, po
# Rattus norvegicus [7] = experiment: Ulcerogenicity in Rattus norvegicus Sprague-Dawley (rat) stomach assessed as appearance of cone shape gastric mucosa layer at 50 mg/kg administered via intragastrically after 6 hr by hematoxylin and eosin staining relative to untreated control; assay type: toxicity, organism-based; parameters: dose 50 mg/kg, route intragastric; settings: in vivo, po
compound,measurement,setting,value
O=C(O)Cc1ccccc1Nc1c(Cl)cccc1Cl [DICLOFENAC],inhibition in vivo at 10 mg/kg,Rattus norvegicus [1],100%
same,inhibition in vivo at 10 mg/kg,Rattus norvegicus [2],78.3%
same,inhibition in vivo at 10 mg/kg,Rattus norvegicus [3],73.5%
same,inhibition in vivo at 10 mg/kg,Rattus norvegicus [4],65.3%
O=c1ccc(Nc2ccccc2Br)n[nH]1,UI,Rattus norvegicus [5],4.2
COc1ccc2c(c1)c(CC(=O)O)c(C)n2C(=O)c1ccc(Cl)cc1 [INDOMETHACIN],Activity,Rattus norvegicus [6],20%
same,UI,Rattus norvegicus [5],7.2
same,Activity,Rattus norvegicus [7],Toxic
Cc1cccc(C)c1Nc1ccc(=O)[nH]n1,UI,Rattus norvegicus [5],1.8
O=C(O)c1ccccc1Oc1ccc(=O)[nH]n1,UI,Rattus norvegicus [5],2

# — ChEMBL document CHEMBL3044823, “Design, synthesis, and evaluation of anti-inflammatory and ulcerogenicity of novel pyridazinone derivatives” (Med Chem Res, 2012)
